# In patent US20230286958A1, “PLASMA KALLIKREIN INHIBITORS” (Merck Sharp & Dohme LLC, priority 2020, published 2023):
# Assays:
# [1] = target: human Factor XIa (Homo sapiens (Human), UniProt P03951); test: Factor XIa Assay (fluorogenic substrate GPR-AFC); type: biochemical; settings: Factor XIa (FXIa)
# [2] = target: Human plasma kallikrein (Homo sapiens (Human), UniProt P03952); test: Kallikrein Assay (fluorogenic substrate Acetyl-K-P-R-AFC); type: biochemical; settings: Plasma Kallikrein (PKal)
# Chain of Human plasma kallikrein (P03952 391-638): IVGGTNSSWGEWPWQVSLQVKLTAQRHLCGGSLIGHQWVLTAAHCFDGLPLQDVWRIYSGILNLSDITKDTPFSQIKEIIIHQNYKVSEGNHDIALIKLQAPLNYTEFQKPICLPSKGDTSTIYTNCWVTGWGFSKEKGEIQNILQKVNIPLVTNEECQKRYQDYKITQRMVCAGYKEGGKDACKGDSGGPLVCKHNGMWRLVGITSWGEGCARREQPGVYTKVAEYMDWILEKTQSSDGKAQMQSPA
# Chain of Human plasma kallikrein (P03952 20-390 partner): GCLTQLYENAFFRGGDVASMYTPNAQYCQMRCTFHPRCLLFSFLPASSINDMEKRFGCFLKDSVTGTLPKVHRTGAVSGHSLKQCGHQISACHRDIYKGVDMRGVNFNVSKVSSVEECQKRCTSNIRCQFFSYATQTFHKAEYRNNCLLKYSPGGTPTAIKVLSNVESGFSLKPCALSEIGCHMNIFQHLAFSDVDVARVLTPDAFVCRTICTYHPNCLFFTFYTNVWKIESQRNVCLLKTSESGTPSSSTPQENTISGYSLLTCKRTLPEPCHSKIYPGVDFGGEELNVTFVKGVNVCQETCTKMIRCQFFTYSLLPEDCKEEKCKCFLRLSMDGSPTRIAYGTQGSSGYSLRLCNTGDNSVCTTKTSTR
# Outline: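 Ki is derived from IC50 with the Cheng-Prusoff equation, and IC50 from the inflection point of a four-parameter logistic curve. The rate of AFC release is read with 0.5 nM purified enzyme and […] substrate at room temperature or 37 °C.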
# Chain of human Factor XIa (P03951 388-625 limits assumed): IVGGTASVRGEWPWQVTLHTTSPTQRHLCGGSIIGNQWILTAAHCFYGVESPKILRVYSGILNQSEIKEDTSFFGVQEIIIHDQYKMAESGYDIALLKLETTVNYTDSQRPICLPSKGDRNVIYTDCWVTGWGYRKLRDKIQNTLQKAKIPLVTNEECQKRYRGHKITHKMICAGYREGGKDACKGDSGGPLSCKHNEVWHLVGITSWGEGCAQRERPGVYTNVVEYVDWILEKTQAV
# Chain of human Factor XIa (P03951 19-387 partner limits assumed): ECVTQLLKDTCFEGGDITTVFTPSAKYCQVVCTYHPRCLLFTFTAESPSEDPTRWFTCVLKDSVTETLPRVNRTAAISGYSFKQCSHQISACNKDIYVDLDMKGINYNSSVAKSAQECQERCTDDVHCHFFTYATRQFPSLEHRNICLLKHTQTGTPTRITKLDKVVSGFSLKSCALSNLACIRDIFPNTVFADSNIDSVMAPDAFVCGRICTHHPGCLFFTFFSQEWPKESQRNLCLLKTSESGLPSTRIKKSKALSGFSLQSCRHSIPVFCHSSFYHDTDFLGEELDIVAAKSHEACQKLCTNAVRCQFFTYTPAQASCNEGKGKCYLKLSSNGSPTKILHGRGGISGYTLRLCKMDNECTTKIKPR
Compound,IC50 [1] [nM],IC50 [2] [nM]
"[2H]C1([2H])C2CC2C(=O)N1c1ncc([C@H](C)n2cc(NC(=O)c3nc(-c4c(C(F)F)ccc(Cl)c4F)cnc3C)cn2)c(C)n1 (single isomer, unassigned) [Example 178, 6-(3-Chloro-6-(difluoromethyl)-2-fluorophenyl)-3-methyl-N-(1-((S)-1-(4-methyl-2-((1R,5S or 1S,5R)-2-oxo-3-azabicyclo[3.1.0]hexan-3-yl-4,4-d2)pyrimidin-5-yl)ethyl)-1H-pyrazol-4-yl)pyrazine-2-carboxamide]",4530,14.2
"[2H]C1([2H])C2CC2C(=O)N1c1ncc([C@H](C)n2cc(NC(=O)c3nc(-c4c(C(F)F)ccc(Cl)c4F)cnc3C)cn2)c(C)n1 (single isomer, unassigned) [Example 179, 6-(3-Chloro-6-(difluoromethyl)-2-fluorophenyl)-3-methyl-N-(1-((S)-1-(4-methyl-2-((1S,5R or 1R,5S)-2-oxo-3-azabicyclo[3.1.0]hexan-3-yl-4,4-d2)pyrimidin-5-yl)ethyl)-1H-pyrazol-4-yl)pyrazine-2-carboxamide]",1820,0.7
"Cc1nc(N2C[C@H]3C[C@H]3C2=O)ncc1C(C)n1cc(NC(=O)c2nc(-c3c(C(F)F)ccc(Cl)c3F)cnc2CO)cn1 (single isomer, unassigned) [Example 194, 6-(3-Chloro-6-(difluoromethyl)-2-fluorophenyl)-3-(hydroxymethyl)-N-(1-((S or R)-1-(4-methyl-2-((1R,5S)-2-oxo-3-azabicyclo[3.1.0]hexan-3-yl)pyrimidin-5-yl)ethyl)-1H-pyrazol-4-yl)pyrazine-2-carboxamide]",262,0.5
"Cc1nc(N2C[C@H]3C[C@H]3C2=O)ncc1C(C)n1cc(NC(=O)c2nc(-c3c(C(F)F)ccc(Cl)c3F)cnc2CO)cn1 (single isomer, unassigned) [Example 195, 6-(3-Chloro-6-(difluoromethyl)-2-fluorophenyl)-3-(hydroxymethyl)-N-(1-((R or S)-1-(4-methyl-2-((1R,5S)-2-oxo-3-azabicyclo[3.1.0]hexan-3-yl)pyrimidin-5-yl)ethyl)-1H-pyrazol-4-yl)pyrazine-2-carboxamide]",765,18.2
"Cc1nc(C(C)n2cc(NC(=O)c3nc(-c4c(C(F)F)ccc(Cl)c4F)cnc3CO)cn2)cnc1N1C[C@H]2C[C@H]2C1=O (single isomer, unassigned) [Example 197, 6-(3-Chloro-6-(difluoromethyl)-2-fluorophenyl)-3-(hydroxymethyl)-N-(1-((S or R)-1-(6-methyl-5-((1R,5S)-2-oxo-3-azabicyclo[3.1.0]hexan-3-yl)pyrazin-2-yl)ethyl)-1H-pyrazol-4-yl)pyrazine-2-carboxamide]",48,0.2
"Cc1nc(C(C)n2cc(NC(=O)c3nc(-c4c(C(F)F)ccc(Cl)c4F)cnc3CO)cn2)cnc1N1C[C@H]2C[C@H]2C1=O (single isomer, unassigned) [Example 198, 6-(3-Chloro-6-(difluoromethyl)-2-fluorophenyl)-3-(hydroxymethyl-N-(1-((R or S)-I-(6-methyl-5-((1R,5S)-2-oxo-3-azabicyclo[3.1.0]hexan-3-yl)pyrazin-2-yl)ethyl)-1H-pyrazol-4-yl)pyrazine-2-carboxamide]",110,0.1
"Cc1c(C(C)n2cc(NC(=O)c3nc(-c4c(C(F)F)ccc(Cl)c4F)cnc3CO)cn2)cnc(N2C[C@H]3C[C@H]3C2=O)c1C (single isomer, unassigned) [Example 201, 6-(3-Chloro-6-(difluoromethyl)-2-fluorophenyl)-N-(1-((S or R)-1-(4,5-dimethyl-6-((1R,5S)-2-oxo-3-azabicyclo[3.1.0]hexan-3-yl)pyridin-3-yl)ethyl)-1H-pyrazol-4-yl)-3-(hydroxymethyl)pyrazine-2-carboxamide]",52,0.4
"Cc1c(C(C)n2cc(NC(=O)c3nc(-c4c(C(F)F)ccc(Cl)c4F)cnc3CO)cn2)cnc(N2C[C@H]3C[C@H]3C2=O)c1C (single isomer, unassigned) [Example 202, 6-(3-Chloro-6-(difluoromethyl)-2-fluorophenyl)-N-(1-((R or S)-1-(4,5-dimethyl-6-((1R,5S)-2-oxo-3-azabicyclo[3.1.0]hexan-3-yl)pyridin-3-yl)ethyl)-1H-pyrazol-4-yl)-3-(hydroxymethyl)pyrazine-2-carboxamide]",11,0.3
"Cc1cc(N2C[C@H]3C[C@H]3C2=O)ncc1C(C)n1cc(NC(=O)c2nc(-c3c(C(F)F)ccc(Cl)c3F)cnc2CO)cn1 (single isomer, unassigned) [Example 203, 6-(3-Chloro-6-(difluoromethyl)-2-fluorophenyl)-3-(hydroxymethyl)-N-(1-((S or R)-1-(4-methyl-6-((1R,5S)-2-oxo-3-azabicyclo[3.1.0]hexan-3-yl)pyridin-3-yl)ethyl)-1H-pyrazol-4-yl)pyrazine-2-carboxamide]",282,0.3
"Cc1cc(N2C[C@H]3C[C@H]3C2=O)ncc1C(C)n1cc(NC(=O)c2nc(-c3c(C(F)F)ccc(Cl)c3F)cnc2CO)cn1 (single isomer, unassigned) [Example 204, 6-(3-Chloro-6-(difluoromethyl)-2-fluorophenyl)-3-(hydroxymethyl)-N-(1-((R or S)-1-(4-methyl-6-((1R,5S)-2-oxo-3-azabicyclo[3.1.0]hexan-3-yl)pyridin-3-yl)ethyl)-1H-pyrazol-4-yl)pyrazine-2-carboxamide]",2520,5.9
"CC(c1cnc(N2C[C@H]3C[C@H]3C2=O)c(F)c1)n1cc(NC(=O)c2nc(-c3c(C(F)F)ccc(Cl)c3F)cnc2CO)cn1 (single isomer, unassigned) [Example 205, 6-(3-Chloro-6-(difluoromethyl)-2-fluorophenyl)-N-(1-((S or R)-1-(5-fluoro-6-((1R,5S)-2-oxo-3-azabicyclo[3.1.0]hexan-3-yl)pyridin-3-yl)ethyl)-1H-pyrazol-4-yl)-3-(hydroxymethyl)pyrazine-2-carboxamide]",389,0.3
"CC(c1cnc(N2C[C@H]3C[C@H]3C2=O)c(F)c1)n1cc(NC(=O)c2nc(-c3c(C(F)F)ccc(Cl)c3F)cnc2CO)cn1 (single isomer, unassigned) [Example 206, 6-(3-Chloro-6-(difluoromethyl)-2-fluorophenyl)-N-(1-((R or S)-1-(5-fluoro-6-((1R,5S)-2-oxo-3-azabicyclo[3.1.0]hexan-3-yl)pyridin-3-yl)ethyl)-1H-pyrazol-4-yl)-3-(hydroxymethyl)pyrazine-2-carboxamide]",120,0.3
"Cc1cc(Cn2cc(NC(=O)c3nc(-c4c(C(F)F)ccc(Cl)c4F)cnc3C(C)O)cn2)nnc1N1C[C@H]2C[C@H]2C1=O (single isomer, unassigned) [Example 208]",1050,12.7
"Cc1cc(Cn2cc(NC(=O)c3nc(-c4c(C(F)F)ccc(Cl)c4F)cnc3C(C)O)cn2)nnc1N1C[C@H]2C[C@H]2C1=O (single isomer, unassigned) [Example 209]",167,3.8
"Cc1cc(C(C)n2cc(NC(=O)c3nc(-c4c(C(F)F)ccc(Cl)c4F)cnc3C(C)O)cn2)cnc1N1C[C@H]2C[C@H]2C1=O (single isomer, unassigned) [Example 210, 6-(3-Chloro-6-(difluoromethyl)-2-fluorophenyl)-3-((S or R)-1-hydroxyethyl)-N-(1-((S or R)-1-(5-methyl-6-((1R,5S)-2-oxo-3-azabicyclo[3.1.0]hexan-3-yl)pyridin-3-yl)ethyl)-1H-pyrazol-4-yl)pyrazine-2-carboxamide]",186,0.4
"Cc1cc(C(C)n2cc(NC(=O)c3nc(-c4c(C(F)F)ccc(Cl)c4F)cnc3C(C)O)cn2)cnc1N1C[C@H]2C[C@H]2C1=O (single isomer, unassigned) [Example 211, 6-(3-Chloro-6-(difluoromethyl)-2-fluorophenyl)-3-((R or S)-1-hydroxyethyl)-N-(1-((S or R)-1-(5-methyl-6-((1R,5S)-2-oxo-3-azabicyclo[3.1.0]hexan-3-yl)pyridin-3-yl)ethyl)-1H-pyrazol-4-yl)pyrazine-2-carboxamide]",50,0.6
"Cc1cc(C(C)n2cc(NC(=O)c3nc(-c4c(C(F)F)ccc(Cl)c4F)cnc3C(C)O)cn2)cnc1N1C[C@H]2C[C@H]2C1=O (single isomer, unassigned) [Example 212, 6-(3-Chloro-6-(difluoromethyl)-2-fluorophenyl)-3-((S or R)-1-hydroxyethyl)-N-(1-((R or S)-1-(5-methyl-6-((1R,5S)-2-oxo-3-azabicyclo[3.1.0]hexan-3-yl)pyridin-3-yl)ethyl)-1H-pyrazol-4-yl)pyrazine-2-carboxamide]",354,1
"Cc1cc(C(C)n2cc(NC(=O)c3nc(-c4c(C(F)F)ccc(Cl)c4F)cnc3C(C)O)cn2)cnc1N1C[C@H]2C[C@H]2C1=O (single isomer, unassigned) [Example 213, 6-(3-Chloro-6-(difluoromethyl)-2-fluorophenyl)-3-((Ror S)-1-hydroxyethyl)-N-(1-((R or S)-1-(5-methyl-6-((1R,5S)-2-oxo-3-azabicyclo[3.1.0]hexan-3-yl)pyridin-3-yl)ethyl)-1H-pyrazol-4-yl)pyrazine-2-carboxamide]",2030,0.9
"COc1cc(C(C)n2cc(NC(=O)c3nc(-c4c(C(F)F)ccc(Cl)c4F)cnc3C)cn2)cnc1N1C[C@H]2C[C@H]2C1=O (single isomer, unassigned) [Example 218, 6-(3-Chloro-6-(difluoromethyl)-2-fluorophenyl)-N(1-((S or R)-1-(5-methoxy-6-((1R,5S)-2-oxo-3-azabicyclo[3.1.0]hexan-3-yl)pyridin-3-yl)ethyl)-1H-pyrazol-4-yl)-3-methylpyrazine-2-carboxamide]",414,1.8
